This is an account of results in ChEMBL document CHEMBL1139622, “Discovery of potent and selective orally bioavailable beta-substituted phenylalanine derived dipeptidyl peptidase IV inhibitors” (Bioorg Med Chem Lett, 2005).

pIC50: −log10 of the molar value.

Targets include Dipeptidyl peptidase 2 (Homo sapiens, UniProt Q9UHL4); Dipeptidyl peptidase 9 (Homo sapiens, UniProt Q86TI2); Dipeptidyl peptidase 8 (Homo sapiens, UniProt Q6V1X1).
Data set [1] deals with Dipeptidyl peptidase 4 (Homo sapiens, UniProt P27487).
Sequence of Dipeptidyl peptidase 4 (Homo sapiens, UniProt P27487) (P27487 whole entry): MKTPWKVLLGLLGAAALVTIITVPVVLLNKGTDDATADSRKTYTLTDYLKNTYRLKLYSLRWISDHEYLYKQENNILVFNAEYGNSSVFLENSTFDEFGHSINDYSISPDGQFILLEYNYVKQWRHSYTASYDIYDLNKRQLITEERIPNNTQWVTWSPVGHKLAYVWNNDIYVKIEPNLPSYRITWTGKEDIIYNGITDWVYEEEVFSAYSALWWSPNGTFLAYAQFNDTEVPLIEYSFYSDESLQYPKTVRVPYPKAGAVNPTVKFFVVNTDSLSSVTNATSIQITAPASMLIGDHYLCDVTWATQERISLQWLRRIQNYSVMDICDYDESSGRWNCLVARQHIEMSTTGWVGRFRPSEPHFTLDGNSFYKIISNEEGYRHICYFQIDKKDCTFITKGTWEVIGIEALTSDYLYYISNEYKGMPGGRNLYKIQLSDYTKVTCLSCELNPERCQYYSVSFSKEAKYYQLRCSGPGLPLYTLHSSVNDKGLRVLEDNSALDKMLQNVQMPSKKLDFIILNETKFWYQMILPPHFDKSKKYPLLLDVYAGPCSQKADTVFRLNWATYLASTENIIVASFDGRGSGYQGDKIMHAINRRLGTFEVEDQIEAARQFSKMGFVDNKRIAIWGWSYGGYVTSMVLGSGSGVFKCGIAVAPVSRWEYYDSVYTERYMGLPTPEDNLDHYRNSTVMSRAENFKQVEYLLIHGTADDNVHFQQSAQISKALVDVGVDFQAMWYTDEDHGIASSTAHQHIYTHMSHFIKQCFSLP
Description: Inhibitory concentration against dipeptidylpeptidase IV
A further data set is described as follows: in vivo. The conditions noted are these: rat.
Data set [2] can be described thus: Plasma clearance in rat. It is filed as ADME, organism-based. The settings on record: read-out: Clp.
A short description of data set [3]: Half-life in rat. It is filed as ADME. The settings on record: in vivo.
Data set [4] in a line: Half -life in rat. The conditions noted are these: in vivo. It is filed as ADME.
Data set [5] in a line: Half-life in dog. Format: ADME, Canis lupus familiaris. The conditions noted are these: in vivo.
For data set [6], the target named is T1, Dipeptidyl peptidase 4 (Mus musculus, UniProt P28843). Description: Inhibitory concentration against mouse dipeptidylpeptidase IV in presence of 50% mouse serum.
T1 sequence (P28843 whole entry): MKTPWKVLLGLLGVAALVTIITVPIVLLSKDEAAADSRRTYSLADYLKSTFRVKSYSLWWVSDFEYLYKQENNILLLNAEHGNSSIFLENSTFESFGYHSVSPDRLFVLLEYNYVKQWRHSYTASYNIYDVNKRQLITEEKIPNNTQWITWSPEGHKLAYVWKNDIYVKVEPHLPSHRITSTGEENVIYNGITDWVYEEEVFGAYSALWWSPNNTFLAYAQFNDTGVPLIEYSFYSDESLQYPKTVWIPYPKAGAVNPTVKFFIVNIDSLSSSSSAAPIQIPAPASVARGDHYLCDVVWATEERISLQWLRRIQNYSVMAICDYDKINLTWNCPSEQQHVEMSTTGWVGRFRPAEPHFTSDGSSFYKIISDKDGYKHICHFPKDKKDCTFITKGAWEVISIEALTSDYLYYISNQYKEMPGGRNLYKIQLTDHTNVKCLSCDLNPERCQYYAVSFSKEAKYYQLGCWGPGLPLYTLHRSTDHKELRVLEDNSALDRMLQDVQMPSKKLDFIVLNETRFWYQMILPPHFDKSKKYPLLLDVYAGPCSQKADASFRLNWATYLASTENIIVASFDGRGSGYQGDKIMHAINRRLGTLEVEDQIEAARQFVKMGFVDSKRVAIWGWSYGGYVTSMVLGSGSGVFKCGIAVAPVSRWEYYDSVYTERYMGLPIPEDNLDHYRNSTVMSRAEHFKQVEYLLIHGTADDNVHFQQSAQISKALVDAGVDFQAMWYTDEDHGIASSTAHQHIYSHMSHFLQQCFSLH
Data set [7] concerns the target T1, Dipeptidyl peptidase 4. Description: Inhibitory concentration against mouse dipeptidylpeptidase IV in presence of 3% mouse serum.
Data set [8] is described as follows: Half-life in rhesus monkey. It is filed as ADME. The settings on record: cercopithecidae, in vivo.
A short description of data set [9]: Plasma clearance in dog. Format: ADME, organism-based, Canis lupus familiaris. The settings on record: read-out: Clp.
Data set [10] has as its target T1, Dipeptidyl peptidase 4. Description: Inhibitory concentration against mouse dipeptidylpeptidase IV in presence of 15% mouse serum.
The nature of data set [11]: Plasma clearance in rhesus monkey. Format: ADME, organism-based. The conditions noted are these: cercopithecidae, read-out: Clp.

Sequence of Dipeptidyl peptidase 9 (Q86TI2 whole entry): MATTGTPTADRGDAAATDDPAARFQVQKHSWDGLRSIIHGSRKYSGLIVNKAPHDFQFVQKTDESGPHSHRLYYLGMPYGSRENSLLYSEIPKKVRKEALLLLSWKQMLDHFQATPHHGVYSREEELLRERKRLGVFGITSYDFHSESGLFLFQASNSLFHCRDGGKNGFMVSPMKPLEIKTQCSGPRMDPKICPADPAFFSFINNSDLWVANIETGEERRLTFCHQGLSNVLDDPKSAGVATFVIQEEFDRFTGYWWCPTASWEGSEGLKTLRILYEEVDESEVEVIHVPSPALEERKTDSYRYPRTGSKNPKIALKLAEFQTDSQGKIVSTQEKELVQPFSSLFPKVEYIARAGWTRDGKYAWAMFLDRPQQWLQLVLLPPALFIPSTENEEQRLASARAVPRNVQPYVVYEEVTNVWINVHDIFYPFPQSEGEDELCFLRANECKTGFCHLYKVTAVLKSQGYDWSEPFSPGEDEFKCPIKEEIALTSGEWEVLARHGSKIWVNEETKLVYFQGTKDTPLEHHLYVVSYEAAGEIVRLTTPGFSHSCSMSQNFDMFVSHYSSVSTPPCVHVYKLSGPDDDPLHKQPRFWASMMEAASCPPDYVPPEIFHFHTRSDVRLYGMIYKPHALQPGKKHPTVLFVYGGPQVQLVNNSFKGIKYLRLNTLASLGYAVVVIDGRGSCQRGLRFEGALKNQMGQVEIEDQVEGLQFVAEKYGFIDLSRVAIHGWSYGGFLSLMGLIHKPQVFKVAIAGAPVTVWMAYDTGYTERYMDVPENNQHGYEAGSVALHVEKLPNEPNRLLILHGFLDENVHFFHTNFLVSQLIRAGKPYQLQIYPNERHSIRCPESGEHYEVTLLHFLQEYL
Sequence of Dipeptidyl peptidase 8 (Q6V1X1 whole entry): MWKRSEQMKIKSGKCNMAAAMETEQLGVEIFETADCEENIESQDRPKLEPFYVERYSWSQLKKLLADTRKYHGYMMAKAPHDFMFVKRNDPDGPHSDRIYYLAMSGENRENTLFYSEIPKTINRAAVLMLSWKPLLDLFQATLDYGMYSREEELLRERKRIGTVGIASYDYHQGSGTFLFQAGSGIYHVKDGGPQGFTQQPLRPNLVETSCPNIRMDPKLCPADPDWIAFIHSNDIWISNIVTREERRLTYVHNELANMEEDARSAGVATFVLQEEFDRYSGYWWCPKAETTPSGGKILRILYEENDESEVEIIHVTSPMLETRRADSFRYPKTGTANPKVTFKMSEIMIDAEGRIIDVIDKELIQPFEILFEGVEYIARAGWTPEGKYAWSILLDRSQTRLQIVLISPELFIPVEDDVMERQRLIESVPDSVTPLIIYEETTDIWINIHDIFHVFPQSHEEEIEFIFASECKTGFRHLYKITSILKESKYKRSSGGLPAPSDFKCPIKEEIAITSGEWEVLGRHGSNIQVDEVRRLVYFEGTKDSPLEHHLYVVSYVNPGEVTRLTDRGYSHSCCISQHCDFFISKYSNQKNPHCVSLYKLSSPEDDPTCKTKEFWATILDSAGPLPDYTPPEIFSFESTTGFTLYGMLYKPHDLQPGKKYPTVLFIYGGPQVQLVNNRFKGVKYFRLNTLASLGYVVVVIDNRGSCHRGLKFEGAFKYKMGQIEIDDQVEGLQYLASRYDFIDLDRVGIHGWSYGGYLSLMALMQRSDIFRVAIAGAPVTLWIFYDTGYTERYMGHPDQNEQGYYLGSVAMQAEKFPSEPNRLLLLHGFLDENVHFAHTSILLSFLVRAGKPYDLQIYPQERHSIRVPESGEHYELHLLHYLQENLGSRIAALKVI
Description for Dipeptidyl peptidase 2: Inhibitory concentration against dipeptidylpeptidase II (QPP)
Description for Dipeptidyl peptidase 8: Inhibitory concentration against dipeptidylpeptidase 8
Description for Dipeptidyl peptidase 9: Inhibitory concentration against dipeptidylpeptidase 9

As to `N[C@H](C(=O)N1CC[C@H](F)C1)[C@@H](Cn1cnnn1)c1ccc(-c2ccc(F)cc2)cc1`, the negative logarithm of the IC50 (pIC50) (in general, the negative decadic logarithm of the IC50, by convention in mol/L) was less than 4.00 at Dipeptidyl peptidase 2, less than 4.00 against Dipeptidyl peptidase 9, less than 4.00 on Dipeptidyl peptidase 8 and 6.72 against Dipeptidyl peptidase 4 [1].

For the compound `CN(C)NC(=O)[C@@H](c1ccc(-c2ccc(F)cc2)cc1)[C@H](N)C(=O)N1CC[C@H](F)C1`, the pIC50 against Dipeptidyl peptidase 2 is less than 4.00; on Dipeptidyl peptidase 9 it was less than 4.00; against Dipeptidyl peptidase 4 [1], 7.17.

Consider `CN(C)C(=O)[C@@H](c1ccc(-c2ccc(F)cc2)cc1)[C@H](N)C(=O)N1CC(F)C1`, for which the pIC50 at Dipeptidyl peptidase 2 is 4.24; at Dipeptidyl peptidase 9, less than 4.00; against Dipeptidyl peptidase 8 it was less than 4.00; against Dipeptidyl peptidase 4 [1], 7.77.

Consider `N[C@H](C(=O)N1CC[C@H](F)C1)[C@@H](C(=O)N1CCCC1)c1ccc(-c2ccc(F)cc2)cc1.O=C(O)C(F)(F)F`, for which the pIC50 against Dipeptidyl peptidase 2 is 5.25; against Dipeptidyl peptidase 4 [1] it was 8.04. Besides, the bioavailability (commonly dose-corrected exposure relative to a reference, in per cent) in “in vivo” was 21%. In addition, in data set [2], the clearance stood at 18 mL/min/kg. The half-life (usually the time needed for the level to fall by half in the phase considered) in data set [3] is 1.7 h.

For the compound `CN(C)C(=O)[C@@H](c1ccc(-c2ccc(F)cc2F)cc1)[C@H](N)C(=O)N1CC[C@H](F)C1`, the pIC50 at Dipeptidyl peptidase 2 was 4.82; on Dipeptidyl peptidase 9, less than 4.00; at Dipeptidyl peptidase 4 [1], 7.89.

Regarding `CN(C)C(=O)[C@@H](c1ccc(-c2ccc(-[n+]3ccccc3)cc2)cc1)[C@H](N)C(=O)N1CC[C@H](F)C1`, the pIC50 on Dipeptidyl peptidase 2 is 4.05; on Dipeptidyl peptidase 8, less than 4.00; against Dipeptidyl peptidase 4 [1] it was 7.70.

In the case of `CNC(=O)[C@@H](c1ccc(-c2ccc(F)cc2)cc1)[C@H](N)C(=O)N1CC[C@H](F)C1`, the negative logarithm of the IC50 (pIC50) was less than 4.00 against Dipeptidyl peptidase 2, less than 4.00 against Dipeptidyl peptidase 9 and 7.43 on Dipeptidyl peptidase 4 [1].

For `N[C@H](C(=O)N1CC[C@H](F)C1)[C@@H](C(=O)NCCO)c1ccc(-c2ccc(F)cc2)cc1`, the negative logarithm of the IC50 (pIC50) on Dipeptidyl peptidase 9 is less than 4.00; against Dipeptidyl peptidase 4 [1] it was 7.03.

Take `CN(C)C(=O)[C@@H](c1ccc(-c2ccc(F)cc2)cc1)[C@H](N)C(=O)N1CCC(F)(F)C1`: the figures for the negative logarithm of the IC50 (pIC50) at Dipeptidyl peptidase 2 and at Dipeptidyl peptidase 4 [1] were 5.15 and 7.57, respectively.

`N[C@H](C(=O)N1CC[C@H](F)C1)[C@@H](C(=O)O)c1ccc(-c2ccc(F)cc2)cc1.O=C(O)C(F)(F)F` gave a half-life in data set [4] of 3.1 h. Further, the pIC50 against Dipeptidyl peptidase 2 was less than 4.00; against Dipeptidyl peptidase 9, less than 4.00; against Dipeptidyl peptidase 8, less than 4.00; at Dipeptidyl peptidase 4 [1], 8.18. In the data set “in vivo”, this compound had a bioavailability of 16%. In addition, the clearance in [2] turned out to be 0.25 mL/min/kg.

`CN(C)C(=O)[C@@H](c1ccc(-c2ccc(F)cc2)cc1)[C@H](N)C(=O)N1CC[C@H](F)C1.O=C(O)C(F)(F)F`: the half-life was 6.1 h in data set [5], 4.7 h in data set [8] and 3.5 h in [3]. Further, the pIC50 is 6.64 on Dipeptidyl peptidase 4 [6], 7.30 at Dipeptidyl peptidase 4 [7] and 7.15 at Dipeptidyl peptidase 4 [10]. For the same compound, the clearance in data set [9] is 1.5 mL/min/kg; in data set [2], 4.8 mL/min/kg; in data set [11] it was 2.4 mL/min/kg.

`CN(C)C(=O)[C@@H](c1ccc(-c2cccc(C#N)c2)cc1)[C@H](N)C(=O)N1CC[C@H](F)C1`: the pIC50 on Dipeptidyl peptidase 2 was 4.24; on Dipeptidyl peptidase 4 [1] it was 7.37.

Take `CN(C)C(=O)[C@@H](c1ccc(-c2ccc(F)c(F)c2)cc1)[C@H](N)C(=O)N1CC[C@H](F)C1`: the negative logarithm of the IC50 (pIC50) against Dipeptidyl peptidase 2 is 4.36; against Dipeptidyl peptidase 4 [1], 7.68.

For the compound `CC(C)NC(=O)[C@@H](c1ccc(-c2ccc(F)cc2)cc1)[C@H](N)C(=O)N1CC[C@H](F)C1`, the values for the pIC50 on Dipeptidyl peptidase 2, on Dipeptidyl peptidase 9 and against Dipeptidyl peptidase 4 [1] were 4.12, less than 4.00 and 7.00, respectively.

`CCNC(=O)[C@@H](c1ccc(-c2ccc(F)cc2)cc1)[C@H](N)C(=O)N1CC[C@H](F)C1`: the pIC50 was 4.05 against Dipeptidyl peptidase 2, less than 4.00 at Dipeptidyl peptidase 9, less than 4.00 against Dipeptidyl peptidase 8 and 6.96 against Dipeptidyl peptidase 4 [1].

As for `CN(C)C(=O)[C@@H](c1ccc(-c2cccc(S(C)(=O)=O)c2)cc1)[C@H](N)C(=O)N1CC[C@H](F)C1`, the pIC50 was 4.09 against Dipeptidyl peptidase 2, less than 4.00 against Dipeptidyl peptidase 9, less than 4.00 against Dipeptidyl peptidase 8 and 7.68 at Dipeptidyl peptidase 4 [1].

Regarding `N[C@@H](Cc1ccc(-c2ccc(F)cc2)cc1)C(=O)N1CC[C@H](F)C1`, the pIC50 is less than 4.00 on Dipeptidyl peptidase 2, less than 4.00 against Dipeptidyl peptidase 9, less than 4.00 against Dipeptidyl peptidase 8 and 6.01 against Dipeptidyl peptidase 4 [1].

With `N[C@H](C(=O)N1CC[C@H](F)C1)[C@@H](CN1CCCC1)c1ccc(-c2ccc(F)cc2)cc1`, the negative logarithm of the IC50 (pIC50) is 6.15 against Dipeptidyl peptidase 2, less than 4.00 at Dipeptidyl peptidase 9 and 5.46 against Dipeptidyl peptidase 4 [1].

In the case of `CN(C)C(=O)[C@@H](c1ccc(-c2ccc(F)cc2)cc1)[C@H](N)C(=O)N1CC(F)(F)C1`, the pIC50 on Dipeptidyl peptidase 2 is 5.03; at Dipeptidyl peptidase 9, less than 4.00; against Dipeptidyl peptidase 8, less than 4.00; against Dipeptidyl peptidase 4 [1], 7.54.

On to `CN(C)C(=O)[C@@H](c1ccc(-c2ccc(F)cc2)cc1)[C@H](N)C(=O)N1CCS(=O)(=O)C1`, for which the pIC50 was 4.12 on Dipeptidyl peptidase 2, less than 4.00 at Dipeptidyl peptidase 9, less than 4.00 on Dipeptidyl peptidase 8 and 6.64 against Dipeptidyl peptidase 4 [1].
